## Nc1nnn[nH]1
In 1,4-dioxane, 288.15 K
  solubility (mole fraction): 0.0178
In 1,4-dioxane, 293.15 K
  solubility (mole fraction): 0.0217
In 1,4-dioxane, 298.15 K
  solubility (mole fraction): 0.0267
In 1,4-dioxane, 303.15 K
  solubility (mole fraction): 0.0328
In 1,4-dioxane, 308.15 K
  solubility (mole fraction): 0.0393
In 1,4-dioxane, 313.15 K
  solubility (mole fraction): 0.0463
In 1,4-dioxane, 318.15 K
  solubility (mole fraction): 0.0551
In 1,4-dioxane, 323.15 K
  solubility (mole fraction): 0.0652
In DMF, 283.15 K
  solubility (mole fraction): 0.0284
In DMF, 288.15 K
  solubility (mole fraction): 0.0326
In DMF, 293.15 K
  solubility (mole fraction): 0.038
In DMF, 298.15 K
  solubility (mole fraction): 0.0437
In DMF, 303.15 K
  solubility (mole fraction): 0.0493
In DMF, 308.15 K
  solubility (mole fraction): 0.0559
In DMF, 313.15 K
  solubility (mole fraction): 0.0628
In DMF, 318.15 K
  solubility (mole fraction): 0.0707
In DMF, 323.15 K
  solubility (mole fraction): 0.0795
In NMP, 283.15 K
  solubility (mole fraction): 0.0223
In NMP, 288.15 K
  solubility (mole fraction): 0.0265
In NMP, 293.15 K
  solubility (mole fraction): 0.0312
In NMP, 298.15 K
  solubility (mole fraction): 0.0366
In NMP, 303.15 K
  solubility (mole fraction): 0.0432
In NMP, 308.15 K
  solubility (mole fraction): 0.0502
In NMP, 313.15 K
  solubility (mole fraction): 0.0577
In NMP, 318.15 K
  solubility (mole fraction): 0.0657
In NMP, 323.15 K
  solubility (mole fraction): 0.0741
In acetone, 283.15 K
  solubility (mole fraction): 0.000749
In acetone, 288.15 K
  solubility (mole fraction): 0.000832
In acetone, 293.15 K
  solubility (mole fraction): 0.000916
In acetone, 298.15 K
  solubility (mole fraction): 0.00102
In acetone, 303.15 K
  solubility (mole fraction): 0.00112
In acetone, 308.15 K
  solubility (mole fraction): 0.00123
In acetone, 313.15 K
  solubility (mole fraction): 0.00135
In acetone, 318.15 K
  solubility (mole fraction): 0.00149
In acetone, 323.15 K
  solubility (mole fraction): 0.00162
In acetonitrile, 283.15 K
  solubility (mole fraction): 0.000193
In acetonitrile, 288.15 K
  solubility (mole fraction): 0.000213
In acetonitrile, 293.15 K
  solubility (mole fraction): 0.000235
In acetonitrile, 298.15 K
  solubility (mole fraction): 0.000256
In acetonitrile, 303.15 K
  solubility (mole fraction): 0.00028
In acetonitrile, 308.15 K
  solubility (mole fraction): 0.000304
In acetonitrile, 313.15 K
  solubility (mole fraction): 0.000329
In acetonitrile, 318.15 K
  solubility (mole fraction): 0.000357
In acetonitrile, 323.15 K
  solubility (mole fraction): 0.000385
In ethanol, 283.15 K
  solubility (mole fraction): 0.0008
In ethanol, 288.15 K
  solubility (mole fraction): 0.000896
In ethanol, 293.15 K
  solubility (mole fraction): 0.00099
In ethanol, 298.15 K
  solubility (mole fraction): 0.00109
In ethanol, 303.15 K
  solubility (mole fraction): 0.00121
In ethanol, 308.15 K
  solubility (mole fraction): 0.00133
In ethanol, 313.15 K
  solubility (mole fraction): 0.00145
In ethanol, 318.15 K
  solubility (mole fraction): 0.0016
In ethanol, 323.15 K
  solubility (mole fraction): 0.00175
In ethyl acetate, 283.15 K
  solubility (mole fraction): 0.000499
In ethyl acetate, 288.15 K
  solubility (mole fraction): 0.000572
In ethyl acetate, 293.15 K
  solubility (mole fraction): 0.000649
In ethyl acetate, 298.15 K
  solubility (mole fraction): 0.000734
In ethyl acetate, 303.15 K
  solubility (mole fraction): 0.000834
In ethyl acetate, 308.15 K
  solubility (mole fraction): 0.000943
In ethyl acetate, 313.15 K
  solubility (mole fraction): 0.00107
In ethyl acetate, 318.15 K
  solubility (mole fraction): 0.00122
In ethyl acetate, 323.15 K
  solubility (mole fraction): 0.00139
In isopropanol, 283.15 K
  solubility (mole fraction): 0.000762
In isopropanol, 288.15 K
  solubility (mole fraction): 0.000853
In isopropanol, 293.15 K
  solubility (mole fraction): 0.000946
In isopropanol, 298.15 K
  solubility (mole fraction): 0.00105
In isopropanol, 303.15 K
  solubility (mole fraction): 0.00116
In isopropanol, 308.15 K
  solubility (mole fraction): 0.00128
In isopropanol, 313.15 K
  solubility (mole fraction): 0.00141
In isopropanol, 318.15 K
  solubility (mole fraction): 0.00154
In isopropanol, 323.15 K
  solubility (mole fraction): 0.00169
In methanol, 283.15 K
  solubility (mole fraction): 0.000615
In methanol, 288.15 K
  solubility (mole fraction): 0.000681
In methanol, 293.15 K
  solubility (mole fraction): 0.000764
In methanol, 298.15 K
  solubility (mole fraction): 0.000858
In methanol, 303.15 K
  solubility (mole fraction): 0.000954
In methanol, 308.15 K
  solubility (mole fraction): 0.00106
In methanol, 313.15 K
  solubility (mole fraction): 0.00118
In methanol, 318.15 K
  solubility (mole fraction): 0.00131
In methanol, 323.15 K
  solubility (mole fraction): 0.00147
In n-butanol, 283.15 K
  solubility (mole fraction): 0.000455
In n-butanol, 288.15 K
  solubility (mole fraction): 0.00051
In n-butanol, 293.15 K
  solubility (mole fraction): 0.000577
In n-butanol, 298.15 K
  solubility (mole fraction): 0.00066
In n-butanol, 303.15 K
  solubility (mole fraction): 0.000755
In n-butanol, 308.15 K
  solubility (mole fraction): 0.000869
In n-butanol, 313.15 K
  solubility (mole fraction): 0.001
In n-butanol, 318.15 K
  solubility (mole fraction): 0.00115
In n-butanol, 323.15 K
  solubility (mole fraction): 0.00131
In n-propanol, 283.15 K
  solubility (mole fraction): 0.000694
In n-propanol, 288.15 K
  solubility (mole fraction): 0.000773
In n-propanol, 293.15 K
  solubility (mole fraction): 0.000868
In n-propanol, 298.15 K
  solubility (mole fraction): 0.000962
In n-propanol, 303.15 K
  solubility (mole fraction): 0.00106
In n-propanol, 308.15 K
  solubility (mole fraction): 0.00117
In n-propanol, 313.15 K
  solubility (mole fraction): 0.00129
In n-propanol, 318.15 K
  solubility (mole fraction): 0.00142
In n-propanol, 323.15 K
  solubility (mole fraction): 0.00157
In toluene, 283.15 K
  solubility (mole fraction): 0.00135
In toluene, 288.15 K
  solubility (mole fraction): 0.00156
In toluene, 293.15 K
  solubility (mole fraction): 0.00177
In toluene, 298.15 K
  solubility (mole fraction): 0.00201
In toluene, 303.15 K
  solubility (mole fraction): 0.00229
In toluene, 308.15 K
  solubility (mole fraction): 0.0026
In toluene, 313.15 K
  solubility (mole fraction): 0.00295
In toluene, 318.15 K
  solubility (mole fraction): 0.00335
In toluene, 323.15 K
  solubility (mole fraction): 0.00381

From BigSolDB 2.1
